Data published in the Deep4Chem optical property database.
Values belong to the compound of their own block, whether it stands above or below them.

Experiment: photoluminescence quantum yield (fraction); solvent given as SMILES

SMILES: CCC1=C(C2=C(C3=C(CC)S(=O)(=O)c4cc(-c5ccc(C(C)=O)s5)ccc43)C(F)(F)C(F)(F)C2(F)F)c2ccc(-c3ccc(C(C)=O)s3)cc2S1(=O)=O
photoluminescence quantum yield (in C1COCCO1): 0

SMILES: COc1ccc(-c2cnc3cccc(-c4ccccc4)n23)cc1
photoluminescence quantum yield (in ClCCl): 0.26

SMILES: c1ccc(-c2nc3c(c4c2-c2ccccc2CC4)-c2ccccc2CC3)cc1
photoluminescence quantum yield (in C1CCOC1): 0.009
photoluminescence quantum yield (in CC#N): 0.001
photoluminescence quantum yield (in CCCCCC): 0.001
photoluminescence quantum yield (in CCOC(C)=O): 0.03
photoluminescence quantum yield (in CO): 0.002
photoluminescence quantum yield (in CS(C)=O): 0.003
photoluminescence quantum yield (in Cc1ccccc1): 0.002
photoluminescence quantum yield (in ClCCl): 0.01

SMILES: Cc1ccc(-c2ccccc2)cc1
photoluminescence quantum yield (in C1CCCCC1): 0.23

SMILES: COc1cc2c(cc1OC)C1=C[C@H](c3ccc(Cl)cc3)C3(C(C#N)=C(C#N)N1CC2)c1cc(Cl)ccc1-c1ccc(Cl)cc13
photoluminescence quantum yield (in ClCCl): 0.00065

SMILES: CC(C)c1cccc(C(C)C)c1N1C(=O)c2cc(Cl)c3c4c(Cl)cc5c6c(cc(Cl)c(c7c(Cl)cc(c2c37)C1=O)c64)C(=O)N(c1c(C(C)C)cccc1C(C)C)C5=O
photoluminescence quantum yield (in Cc1ccccc1): 0.95

SMILES: CCN(CC)c1ccc(C2=C3C(C)=CC(/C=C/c4ccc(OCCCN=[N+]=[N-])cc4)=[N+]3[B-](F)(F)n3c(C)cc(C)c32)cc1
photoluminescence quantum yield (in CO): 0.82

SMILES: COc1ccc(C2=C(c3ccc(OC)cc3)C(C)(C)c3cc(OC)ccc32)cc1
photoluminescence quantum yield (in C1CCCCC1): 0.12

SMILES: c1ccc(-c2nnc(-c3ccc(N4c5ccccc5Oc5ccccc54)cc3)n2-c2ccccc2)cc1
photoluminescence quantum yield (in Cc1ccccc1): 0.127

SMILES: F[B-]1(F)n2c(ccc2-c2nc3ccccc3s2)C(c2ccccc2)=C2C=CC(c3nc4ccccc4s3)=[N+]21
photoluminescence quantum yield (in ClC(Cl)Cl): 0.86

SMILES: CC(=O)OC[C@@H]1O[C@H](N2C=CC3=Nc4nc(C)[n+](C)cc4CN3C2=O)[C@@H](O)[C@H]1O
photoluminescence quantum yield (in CC#N): 0.89
photoluminescence quantum yield (in CCO): 0.05
photoluminescence quantum yield (in O): 0.2

SMILES: F[B-]1(F)n2c(c3ccccc3c2-c2ccccc2)N=C2c3ccccc3C(c3ccccc3)=[N+]21
photoluminescence quantum yield (in ClCCl): 0.14

SMILES: CC(C)(C)c1ccc2c(c1)Sc1cc(C(C)(C)C)ccc1N2c1ccc2c(ccc3nc4ccc5cc(N6c7ccc(C(C)(C)C)cc7Sc7cc(C(C)(C)C)ccc76)ccc5c4nc32)c1
photoluminescence quantum yield (in C1CCCCC1): 0.11
photoluminescence quantum yield (in Cc1ccccc1): 0.04

SMILES: CCCCC(CC)Cn1c2cc(C#N)ccc2c2cc(-c3ccc(N(c4ccccc4)c4ccccc4)cc3)c(C#N)cc21 (configuration not stated)
photoluminescence quantum yield (in ClCCl): 0.31

SMILES: COc1nnc(Cl)nn1
photoluminescence quantum yield (in ClCCl): 0.38
photoluminescence quantum yield (in OCC(F)(F)F): 0.26

SMILES: CC(C)n1c(=O)c2cc3ccc4cccc5ccc(c2c1=O)c3c45
photoluminescence quantum yield (in ClC(Cl)Cl): 0.49

SMILES: CN(C)c1ccc(C2=Nc3scc(-c4ccc(N(C)C)cc4)[n+]3[B-](F)(F)O2)cc1
photoluminescence quantum yield (in C1CCOC1): 0.01
photoluminescence quantum yield (in CC#N): 0
photoluminescence quantum yield (in Cc1ccccc1): 0.66
photoluminescence quantum yield (in ClCCl): 0.04

Next, values leading:

photoluminescence quantum yield (in c1ccccc1): 0.064
SMILES: CCOC(=O)c1sc2nc(-c3ccc(OC)cc3)c(C)c(C#N)c2c1N

photoluminescence quantum yield (in CC#N): 0.25
photoluminescence quantum yield (in ClCCl): 0.44
SMILES: CNC(=O)[C@H](C)NC(=O)c1cccc2c1C#Cc1c(N)cccc1OCCCO2

photoluminescence quantum yield (in c1cc(-c2cccc(-n3c4ccccc4c4ccccc43)c2)cc(-n2c3ccccc3c3ccccc32)c1): 0.47
SMILES: Cc1cc2cc(N3c4ccccc4Oc4ccccc43)ccc2c(=O)o1

photoluminescence quantum yield (in ClCCl): 0.06
SMILES: [O-][n+]1c(/C=C/C=C/c2ccccc2)nc(N2CCOCC2)c2c1CCCC2

photoluminescence quantum yield (in CCO): 0.137
photoluminescence quantum yield (in ClCCl): 0.0812
photoluminescence quantum yield (in O): 0.1
SMILES: Oc1cc(-c2ccco2)ccc1-c1nc2ccccc2s1

photoluminescence quantum yield (in CO): 0.04
SMILES: Brc1cnc(-c2ccc(N(c3ccccc3)c3ccccc3)cc2)s1

photoluminescence quantum yield (in ClCCl): 0.0006
SMILES: Cc1ccc(N(c2ccc(C)cc2)c2ccc(Oc3nnc(Cl)nn3)cc2)cc1

photoluminescence quantum yield (in CC#N): 0.114
SMILES: Cc1sc(Cl)cc1-c1nc(-c2ccc(Cl)cc2)[nH]c1-c1cc(Cl)sc1C

photoluminescence quantum yield (in ClC(Cl)Cl): 0.3
SMILES: CN(C)c1ccc(-c2ccc(-c3ccc(N(C)C)cc3)c3nc(-c4ccccc4)c(-c4ccccc4)nc23)cc1

photoluminescence quantum yield (in C1CCOC1): 0.97
photoluminescence quantum yield (in CCO): 0.74
photoluminescence quantum yield (in CN(C)C=O): 0.66
SMILES: Nc1cccc2c1C(=O)NC2=O

photoluminescence quantum yield (in CCO): 0.595
SMILES: CCOC(=O)c1cc(C(=O)OCC)c2cc(N(C)C)ccc2n1
